Data as given in patent US20180022922A1, “METHOD FOR PREPARING A COLORANT FOR USE IN A HOT MELT INK” (Océ Holding B.V., priority 2016, published 2018).

Assay: Migration test (paper chromatography)
Format: physicochemical
Conditions: Wattmann 1-CHR paper, eluent cyclohexane/toluene 50 wt %/50 wt %, judged qualitatively (FIG. 5)
Description: A chromatography test is performed to provide an (comparative) indication of migration of a colorant on a print substrate. For this, solutions of the colorants to be tested, in dichloromethane are prepared. The prepared solutions contain substantially equal concentrations of colorant. For the purpose of the present invention, the eluent solution consists of a cyclohexane/toluene mixture (50 wt %/50 wt %). A sheet of Wattmann 1-CHR paper is used as a substrate. At about 1 cm from the bottom edge of the paper sheet dots of equal size of the colorant solutions are made (by using a pipette). Each dot is positioned at substantially the same distance from the bottom edge of the paper sheet. Then the sheet is left to dry. A beaker is filled with eluent solution such that the level of eluent solution is less than 1 cm. The dried test sample (paper sheet provided with colorant dots) is placed in the beaker such that the lower edge of the paper sheet touches the bottom of the beaker. Due to capillary flow the eluent solution will flow upward in the paper sheet. This set up is left to stand until the wetted height of paper sheet is at least 1.5 times the height to which the most soluble colorant rises. The results are judged qualitatively. If the colorant dot remains at the starting position, migration is not likely to occur. […]

migration of colorant on paper substrate: significant migration
Compound: Cn1c(=O)cc2c3c(c(NC4CCCCC4)ccc31)C(=O)c1ccccc1-2 [SR149]
